In patent US6720346B2, “Thiazole benzamide derivatives and pharmaceutical compositions for inhibiting cell proliferation” (Agouron Pharmaceuticals, Inc., priority 2001, dated 2004):

Legend:
HCT-116 cell line = assay: Inhibition of cell growth, MTT tetrazolium salt assay; assay type: cell-based
In short: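 Growth inhibition was read as MTT-formazan absorbance at 540 nm, after 4 h with 0.2 mg/mL MTT. Before that, HCT-116 cells had been exposed 3–5 days at 37 °C to compounds in 0.5% (v/v) DMSO, added 4 h after plating. 50% and 90% inhibitory concentrations were taken from semi-log concentration–inhibition plots versus vehicle controls.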

human CDK4/cyclin D3 = target: T1, human CDK4/cyclin D3 (Homo sapiens, UniProt P11802); assay: Inhibition of CDK4/cyclin D retinoblastoma kinase activity (Ki; % inhibition); assay type: biochemical
T1 construct: made in house; host or cells: insect cells co-infected with baculovirus vectors
In short: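 Insect-cell-expressed CDK4 with truncated cyclin D3 (1-264), 5 nM, phosphorylating His-tagged Rb fragment (386-928) with 25 μM [32/33P]ATP at pH 7.4, 30 °C, 20 min (60 min for tight binders). Filter capture, phosphorimager read; % inhibition at 30 nM compound, Ki from competitive or tight-binding fits.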

CDK2/cyclin A = target: T2, CDK2/cyclin A (Homo sapiens, UniProt P24941); assay: Inhibition of CDK2/cyclin A retinoblastoma kinase activity (Ki; % inhibition); assay type: biochemical
T2 construct: made in house; host or cells: CDK2: insect cells (baculovirus); cyclin A: E. coli
In short: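 Radiometric filter assay of CDK2/proteolyzed cyclin A (baculovirus-expressed human CDK2, 10 or 19 nM) phosphorylating an Rb fragment with 25 μM [³²P/³³P]ATP in pH 7.4 HEPES, 2% DMSO, at 30 °C for 60 or 75 min under initial-rate conditions. Library compounds screened at 30 nM for % inhibition; apparent Ki from concentration series fit to competitive or tight-binding inhibition equations.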

[1] = HCT-116 cells, 0.25 μM compound

T1 sequence (P11802 whole entry): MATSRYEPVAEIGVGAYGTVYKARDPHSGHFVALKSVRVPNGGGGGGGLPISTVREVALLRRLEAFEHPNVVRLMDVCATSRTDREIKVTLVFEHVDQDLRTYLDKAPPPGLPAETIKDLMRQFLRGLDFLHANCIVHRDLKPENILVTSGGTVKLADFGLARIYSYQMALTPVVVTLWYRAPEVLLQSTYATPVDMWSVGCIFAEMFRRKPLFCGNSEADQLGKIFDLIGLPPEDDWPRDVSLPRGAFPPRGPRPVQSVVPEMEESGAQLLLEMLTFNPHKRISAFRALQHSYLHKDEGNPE
T1 sequence (P30281 1-264 partner limits assumed): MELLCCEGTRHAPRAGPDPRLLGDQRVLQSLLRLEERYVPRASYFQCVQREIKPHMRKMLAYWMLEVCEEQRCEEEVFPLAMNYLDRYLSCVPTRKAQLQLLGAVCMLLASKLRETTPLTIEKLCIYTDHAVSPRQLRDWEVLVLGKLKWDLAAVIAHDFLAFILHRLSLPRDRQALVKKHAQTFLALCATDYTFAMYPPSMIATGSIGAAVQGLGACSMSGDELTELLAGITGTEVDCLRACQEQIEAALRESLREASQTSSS

SMILES | HCT-116 % Inhibition at 0.1 μM (HCT-116 cell line; HCT-116, at 0.1 μM) | HCT-116 % Inhibition at 0.25 μM (HCT-116 cell line; HCT-116, at 0.25 μM) | CDK4 % Inhibition at 0.03 μM (human CDK4/cyclin D3; at 0.03 μM) | CDK2 % Inhibition at 0.03 μM (CDK2/cyclin A; at 0.03 μM) | HCT-116 % Inhibition at 0.1 μM (HCT-116 cell line; HCT-116 cells, 0.1 μM compound) | HCT-116 % Inhibition at 0.25 μM (HCT-116 cell line; [1]) | CDK4 % Inhibition at 0.03 μM (human CDK4/cyclin D3; 0.03 μM compound) | CDK2 % Inhibition at 0.03 μM (CDK2/cyclin A; 0.03 μM compound)
Nc1nc(Nc2ccc(C(=O)NCc3cccnc3)cc2)sc1C(=O)c1c(F)cccc1F [Example G188] | 17% | 51% | 39% | 29% |  |  |  | 
CC(=O)c1cccc(NC(=O)c2ccc(Nc3nc(N)c(C(=O)c4c(F)cccc4F)s3)cc2)c1 [Example G189] | 13% | 56% | 18% | 10% |  |  |  | 
CCOC(=O)c1ccc(NC(=O)c2ccc(Nc3nc(N)c(C(=O)c4c(F)cccc4F)s3)cc2)cc1 [Example G190] | 9% | 55% | 4% | 5% |  |  |  | 
C[C@H](NC(=O)c1ccc(Nc2nc(N)c(C(=O)c3c(F)cccc3F)s2)cc1)C(N)=O [Example G191] | 3% | 51% | 15% | 14% |  |  |  | 
CNC(=O)C(C)NC(=O)c1ccc(Nc2nc(N)c(C(=O)c3c(F)cccc3F)s2)cc1 (centres unmarked) [Example G192] | 13% | 49% | 23% | 8% |  |  |  | 
COc1cccc(CCNC(=O)c2ccc(Nc3nc(N)c(C(=O)c4c(F)cccc4F)s3)cc2)c1 [Example G193] | 17% | 56% | 26% | 19% |  |  |  | 
Nc1nc(Nc2ccc(C(=O)N3CCC(Cc4ccccc4)CC3)cc2)sc1C(=O)c1c(F)cccc1F [Example G194] | 20% | 49% | 19% | 1% |  |  |  | 
CN(CC#N)C(=O)c1ccc(Nc2nc(N)c(C(=O)c3c(F)cccc3F)s2)cc1 [Example G195] | 17% | 47% | 26% | 20% |  |  |  | 
Nc1nc(Nc2ccc(C(=O)NCCc3ccc(Cl)cc3Cl)cc2)sc1C(=O)c1c(F)cccc1F [Example G196] | 13% | 48% | 13% | 7% |  |  |  | 
Cc1ccc(NC(=O)c2ccc(Nc3nc(N)c(C(=O)c4c(F)cccc4F)s3)cc2)cc1 [Example G197] |  |  |  |  | 26% | 61% | 9% | 14%
NC(=O)C(CO)NC(=O)c1ccc(Nc2nc(N)c(C(=O)c3c(F)cccc3F)s2)cc1 (centres unmarked) [Example G198] |  |  |  |  | 9% | 44% | 42% | 19%
Nc1nc(Nc2ccc(C(=O)NC3CCOC3=O)cc2)sc1C(=O)c1c(F)cccc1F (centres unmarked) [Example G199] |  |  |  |  | 12% | 52% | 22% | 18%
CCCCCNC(=O)c1ccc(Nc2nc(N)c(C(=O)c3c(F)cccc3F)s2)cc1 [Example G200] |  |  |  |  | 19% | 50% | 23% | 15%
Nc1nc(Nc2ccc(C(=O)N3CCC(O)(c4ccccc4)CC3)cc2)sc1C(=O)c1c(F)cccc1F [Example G202] |  |  |  |  | 20% | 48% | 25% | 5%
COc1cccc(CCNC(=O)c2ccc(Nc3nc(N)c(C(=O)c4c(F)cccc4F)s3)cc2)c1OC [Example G203] |  |  |  |  | 18% | 53% | 20% | 7%
CCCc1ccc(NC(=O)c2ccc(Nc3nc(N)c(C(=O)c4c(F)cccc4F)s3)cc2)cc1 [Example G204] |  |  |  |  | 19% | 49% | 10% | 6%
CCCCOc1ccc(NC(=O)c2ccc(Nc3nc(N)c(C(=O)c4c(F)cccc4F)s3)cc2)cc1 [Example G205] |  |  |  |  | 12% | 52% | 7% | 1%
Nc1nc(Nc2ccc(C(=O)NCCc3ccccc3F)cc2)sc1C(=O)c1c(F)cccc1F [Example G206] |  |  |  |  | 13% | 58% | 19% | 13%

SMILES | HCT-116 % Inhibition at 0.1 μM (HCT-116 cell line; HCT-116, at 0.1 μM) | HCT-116 % Inhibition at 0.25 μM (HCT-116 cell line; HCT-116, at 0.25 μM) | CDK4 % Inhibition at 0.03 μM (human CDK4/cyclin D3; at 0.03 μM) | CDK2 % Inhibition at 0.03 μM (CDK2/cyclin A; at 0.03 μM) | HCT-116 % Inhibition at 0.1 μM (HCT-116 cell line; HCT-116 cells, 0.1 μM compound) | HCT-116 % Inhibition at 0.25 μM (HCT-116 cell line; [1]) | CDK4 % Inhibition at 0.03 μM (human CDK4/cyclin D3; 0.03 μM compound) | CDK2 % Inhibition at 0.03 μM (CDK2/cyclin A; 0.03 μM compound)
Nc1nc(Nc2ccc(C(=O)Nc3ccccc3CCO)cc2)sc1C(=O)c1c(F)cccc1F [Example G207] |  |  |  |  | 15% | 66% | 15% | 15%
Nc1nc(Nc2ccc(C(=O)NCc3ccc(OC(F)(F)F)cc3)cc2)sc1C(=O)c1c(F)cccc1F [Example G208] |  |  |  |  | 11% | 56% | 36% | 36%
CCN(Cc1ccccc1)C(=O)c1ccc(Nc2nc(N)c(C(=O)c3c(F)cccc3F)s2)cc1 [Example G209] |  |  |  |  | 9% | 50% | 16% | 9%
CCOC(=O)C1CCN(C(=O)c2ccc(Nc3nc(N)c(C(=O)c4c(F)cccc4F)s3)cc2)CC1 [Example G210] |  |  |  |  | 15% | 45% | 20% | 13%
Nc1nc(Nc2ccc(C(=O)NCCc3ccc(Cl)c(Cl)c3)cc2)sc1C(=O)c1c(F)cccc1F [Example G211] |  |  |  |  | 13% | 45% | 23% | 23%
COc1ccc(NC(=O)c2ccc(Nc3nc(N)c(C(=O)c4c(F)cccc4F)s3)cc2)cc1OC [Example G212] |  |  |  |  | 17% | 53% | 20% | 16%
Nc1nc(Nc2ccc(C(=O)Nc3ccon3)cc2)sc1C(=O)c1c(F)cccc1F [Example G213] |  |  |  |  | 16% | 49% | 9% | −1%
CC[C@H](NC(=O)c1ccc(Nc2nc(N)c(C(=O)c3c(F)cccc3F)s2)cc1)c1ccccc1 [Example G214] |  |  |  |  | 15% | 52% | 16% | 11%
COc1ccc(NC(=O)c2ccc(Nc3nc(N)c(C(=O)c4c(F)cccc4F)s3)cc2)cn1 [Example G215] |  |  |  |  | 22% | 73% | 27% | 18%
Nc1nc(Nc2ccc(C(=O)NCc3cccc(Cl)c3Cl)cc2)sc1C(=O)c1c(F)cccc1F [Example G216] |  |  |  |  | 16% | 54% | 36% | 29%
Nc1nc(Nc2ccc(C(=O)N3CCN(Cc4ccccc4)CC3)cc2)sc1C(=O)c1c(F)cccc1F [Example G217] |  |  |  |  | 8% | 51% | 34% | 17%
CCCCN(C)C(=O)c1ccc(Nc2nc(N)c(C(=O)c3c(F)cccc3F)s2)cc1 [Example G218] |  |  |  |  | 11% | 52% | 19% | 8%
C=CCNC(=O)c1ccc(Nc2nc(N)c(C(=O)c3c(F)cccc3F)s2)cc1 [Example G219] |  |  |  |  | 8% | 52% | 13% | 10%
COC(=O)c1ccc(NC(=O)c2ccc(Nc3nc(N)c(C(=O)c4c(F)cccc4F)s3)cc2)cc1OC [Example G220] |  |  |  |  | 18% | 54% | 12% | 10%
Nc1nc(Nc2ccc(C(=O)NCc3ccccc3F)cc2)sc1C(=O)c1c(F)cccc1F [Example G221] |  |  |  |  | 20% | 74% | 34% | 29%
CC(O)c1cccc(NC(=O)c2ccc(Nc3nc(N)c(C(=O)c4c(F)cccc4F)s3)cc2)c1 (centres unmarked) [Example G222] |  |  |  |  | 8% | 61% | 27% | 30%
C=C(C)CNC(=O)c1ccc(Nc2nc(N)c(C(=O)c3c(F)cccc3F)s2)cc1 [Example G223] |  |  |  |  | 14% | 50% | 19% | 14%
